Measured values: patent publication US5232684A, “Labelled resiniferatoxin, compositions thereof, and methods for using the same” (priority 1990, dated 1993)

What was measured:
[1] = target: T1, capsaicin receptor (pig DRG membranes) (Sus scrofa, UniProt F1RLJ0); test: biochemical; assay type: binding
T1 construct: tissue Mt; Airy Locker Co., Mt; Airy, MD; host or cells: pig dorsal root ganglia
Method: Membrane preparations are obtained from the DRG and Gasser ganglia of female Sprague-Dawley rats (250-300 g); animals are sacrificed by decapitation under ether anesthesia, the ganglia removed and collected into ice-cold disrupting buffer (5 mM KCl, 5.8 mM NaCl, 2 mM MgCl2, 12 mM glucose, 137 mM sucrose, 10 mM HEPES, 5 mM DTT, 2 mM EGTA, pH 7.4). After homogenization with the aid of a Polytron tissue homogenizer, samples are filtered over surgical gauze and then washed twice with the same buffer and stored at -70° C. Particulate fractions are obtained from other rat neural tissues (cerebellum, spinal cord, preoptic region, striatum, substantia nigra) and from DRG of pigs (Mt. Airy Locker Co., Mt. Airy, MD), sheep, cows (kindly provided by Dr. Solomon, USDA, Beltsville, MD), and chickens (Truslow Farms, Chesterton, MD) by a similar procedure.
Subcellular fractions are prepared by a modification of the method of Bastiaensen et al. (Bastiaensen, E., Miserez, B. and De Potter, W., Subcellular fractionation of bovine ganglion stellatum: co-storage of noradrenaline, Met-enkephalin and neuropeptide Y in large `dense-cored` vesicles, Brain Res., 442 (1988) 124-130. ) Briefly: DRG are dissected free from capsule, cut into small pieces with scissors, and then homogenized with a teflon pestle (20 strokes) in ice-cold 0.25 M sucrose/ 20 mM Tris-Cl (pH 7.4) buffer. The homogenate is filtered over surgical gauze; it is then centrifuged for 10 min at 2000 gmax, giving a pellet P1, and again at 10 000 gmax for 15 min giving a pellet P2. The P1 and P2 pellets are saved as nuclear and mitochondrial fractions for binding studies. The resulting supernatant is further centrifuged at 50 000 gmax for 60 min, and then the pellet is harvested as the plasma-membrane enriched microsomal fraction.
The binding assays are carried out in a volume of 250 ul, containing assay buffer (same as the disrupting buffer but omitting DTT and EGTA and including 0.75 mM CaCl2), 26-30 ug of membrane protein and 0.25 mg/ml bovine serum albumin. […] Tubes are kept on ice while the additions are made. The assay mixture is incubated for 10 min at 37° C.; it is then cooled on ice. 150 ul of the mixture is pipetted onto Whatman GF/C or GF/F glass fiber filters presoaked with 10 mg/ml bovine serum albumin in 20 mM Tris-Cl (pH 7.4) and filtered immediately. An aliquot of 50 ul of the mixture is removed to determine total radioactivity. The filters are washed with 100 ml of ice-cold 20 mM Tris-Cl, pH 7 4, containing 0.1 mg/ml bovine serum albumin, and the bound radioactivity is determined by scintillation counting. Non-specific binding is determined in the presence of 100-1000 nM non-radioactive RTX.
Binding data from saturation experiments using increasing concentrations of hot ligand are analyzed using the collection of computer programs described by McPherson (McPherson, G.A., Analysis of radioligand binding experiments: a collection of computer programs for the IBM PC, J.Pharmacol.Methods, 14 (1985) 213-228).
Scatchard and Hill transformations are performed by the Equilibrium Binding Data Analysis program referred to as EBDA. Data are further analyzed by the curvilinear regression program LIGAND (Munson, R.J. and Rodbard, D., LIGAND: a versatile computerized approach for characterization of ligand-binding systems, Anal.Biochem, 107 (1980) 220-239).
RTX binding is also analyzed in the presence of a fixed, low (60 pM or 300 pM) concentration of [^3 H]RTX and increasing concentrations of non-radioactive RTX or other ligand.

[2] = test system: CD-1 mice; test: Induction of hypothermia in CD-1 mice; assay type: in vivo, mouse; conditions: 10^-5 g/kg s.c.
Text: [^3 H]RTX (37 Ci/mmol) is synthesized by esterification of resiniferonol 9,13,14-orthophenylacetate (Chemicals for Cancer Research, Inc., Chaska, MN) at the C20 position with [^3 H]homovanillic acid (Chemical Synthesis and Analysis Laboratory, NCI-FCRF, Frederick, MD). The labelled compound is purified on HPLC and cochromatographed with authentic RTX (Chemicals for Cancer Research, Inc., Chaska, MN). The biological activity of [^3 H]RTX is confirmed in 2 assays: induction of hypothermia in CD-1 mice (10^-5 g/kg s.c.) and induction of ear edema in Sprague-Dawley rats (2×10^-7 g/ear).

T1 sequence (F1RLJ0 1-841): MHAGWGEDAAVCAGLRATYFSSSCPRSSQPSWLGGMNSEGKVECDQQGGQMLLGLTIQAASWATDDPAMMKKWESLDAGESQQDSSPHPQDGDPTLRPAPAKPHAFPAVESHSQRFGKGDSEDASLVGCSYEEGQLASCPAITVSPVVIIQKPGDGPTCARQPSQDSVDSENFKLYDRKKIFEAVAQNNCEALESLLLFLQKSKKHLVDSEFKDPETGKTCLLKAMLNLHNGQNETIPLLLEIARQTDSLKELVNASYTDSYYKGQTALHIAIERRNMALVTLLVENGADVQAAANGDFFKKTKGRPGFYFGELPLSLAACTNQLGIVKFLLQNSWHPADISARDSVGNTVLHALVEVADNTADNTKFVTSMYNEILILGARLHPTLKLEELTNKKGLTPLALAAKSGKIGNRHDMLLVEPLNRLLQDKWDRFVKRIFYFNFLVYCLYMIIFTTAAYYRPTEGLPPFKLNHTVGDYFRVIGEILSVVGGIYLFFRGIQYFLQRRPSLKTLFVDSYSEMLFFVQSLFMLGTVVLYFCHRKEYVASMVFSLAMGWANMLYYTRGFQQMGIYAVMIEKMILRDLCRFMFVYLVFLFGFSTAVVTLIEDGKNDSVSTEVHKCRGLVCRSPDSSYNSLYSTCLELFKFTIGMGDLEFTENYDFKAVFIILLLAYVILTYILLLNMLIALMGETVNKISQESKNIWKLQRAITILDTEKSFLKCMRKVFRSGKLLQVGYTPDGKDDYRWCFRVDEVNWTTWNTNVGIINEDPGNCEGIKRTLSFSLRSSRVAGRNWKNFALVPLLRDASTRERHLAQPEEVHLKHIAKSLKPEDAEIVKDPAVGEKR

## C=C(C)[C@]12C[C@@H](C)[C@@]34O[C@](Cc5ccccc5)(O[C@@H]1[C@@H]3C=C(COC(=O)Cc1ccc(O)c(OC)c1)C[C@]1(O)C(=O)C(C)=C[C@@H]41)O2 [[^3 H]RTX, [^3 H]resiniferatoxin]
[1]; DRG from pigs
  specific binding: Specific binding is observed
[1]; pig DRG
  Bmax (summary): 730 fmol/mg
[1]; pig DRG membranes heated to 55° C. for 10-20 min, 2 experiments
  specific [^3H]RTX binding after heating of membranes: completely inactivates
[1]; pig DRG membranes, 37° C.
  time at which specific binding is maximal: 10 min
[1]; pig DRG, partially purified membrane preparations
  Hill coefficient: 0.9
[1]; pig DRG, partially purified membrane preparations, 2 separate determinations
  Bmax (Scatchard analysis): 700 fmol/mg protein
[1]; pig DRG, partially purified membrane preparations, 2 separate determinations, LIGAND, read-out: Kd (Scatchard analysis)
  Kd: 1.7 nM
[1]; pig DRG, mean±SEM, 4 determinations
  Bmax (competition): 730±80 fmol/ mg protein
[2]
  biological activity: induction of hypothermia: confirmed
